The results in this text go back to paper PMC13144739, “Global analysis of cancer cell responses to USP9X inhibition” (The EMBO Journal, 2026).

The target of one assay is T1, USP9X/USP24 chimera (Homo sapiens, UniProt Q93008, A1766S/D1761E/K1759R/L1762V/Y1757F).
T1 construct: His/SUMO (pOPIN-S vector) (N, cleaved yes); made in house; host or cells: E. coli BL21
The assay can be described thus: Ub-Rho cleavage assay, USP9X/USP24 chimera. Format: biochemical. An excerpt:
An expression construct for the USP9X catalytic domain (aa 1551–1970, […]: Q93008-1), was codon optimised for bacterial expression, synthesised in gBlock format (Integrated DNA Technologies) and cloned into the pOPIN-S vector (Berrow et al, [2007]), which was digested with KpnI and HindIII using In-Fusion™ HD cloning (Takara Clontech). […] For the USP9X Δβ catalytic domain a deletion construct ΔE1924-K1943 and for USP9X/USP24 chimera, a construct with USP9X Y1757-A1766 replaced with the USP24 (NCBI Reference Sequence: NP_056121) aa motif […] was used. All constructs were confirmed by Sanger sequencing (AGRF).
The reaction was stopped through the addition of 10 mM citric acid. The assay was performed in 384-well format with a total reaction volume of 16 µL. Data was collected using the ClarioSTAR plate reader (BMG Labtech) at an emission of 535 nm. […] IC50 values presented in our study are the mean of three independent biological repeats unless indicated otherwise.

Assay [1] addresses T2, USP9X catalytic domain (Homo sapiens, UniProt Q93008).
T2 construct: His/SUMO (pOPIN-S vector) (N, cleaved yes); made in house; host or cells: E. coli BL21
T2 sequence (Q93008 1551-1970): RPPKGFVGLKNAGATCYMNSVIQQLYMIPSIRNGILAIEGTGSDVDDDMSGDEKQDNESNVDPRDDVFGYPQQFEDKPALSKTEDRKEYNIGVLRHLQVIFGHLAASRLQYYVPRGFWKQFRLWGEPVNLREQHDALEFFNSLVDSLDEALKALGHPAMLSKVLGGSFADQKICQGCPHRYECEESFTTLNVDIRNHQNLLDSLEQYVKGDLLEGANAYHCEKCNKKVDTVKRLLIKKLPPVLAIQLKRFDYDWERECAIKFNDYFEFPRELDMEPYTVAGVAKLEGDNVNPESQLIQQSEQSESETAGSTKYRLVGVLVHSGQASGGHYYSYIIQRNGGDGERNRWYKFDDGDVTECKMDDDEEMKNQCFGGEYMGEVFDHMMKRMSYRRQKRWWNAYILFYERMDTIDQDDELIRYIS
As to the kind of experiment: Ub-PA suicide probe competition assay. In kind it is biochemical. The following applies: 50 µM compound, WT catalytic domain. The protocol:
For inhibitor activity assays, USP9X catalytic domain (di-ubiquitin cleavage assay: 750 nM, ubiquitin-probe assays: 2.5 µM) was pre-incubated with USP9X inhibitors for 30 min at ambient temperature and subsequently mixed with di-ubiquitin (final concentration 2 µM) in assay buffer (25 mM Tris [pH 8.0], 150 mM NaCl, 10 mM DTT) at pH 8.0 or was mixed with ubiquitin-propargylamide (Ub-PA)/ubiquitin-vinyl sulfonate (Ub-VS) probes at a final concentration of 10 µM in assay buffer. For both assays, the mixture was incubated over a time course, and the reaction was stopped by mixing samples with 2× LDS sample buffer (Invitrogen) supplemented with 3% (v/v) 2-mercaptoethanol. All protein samples were run on a 4–12% Bis-Tris SDS-PAGE gradient gel (Invitrogen) for 60 min at 140 V. The gel was stained with InstantBlue® (Abcam) and imaged.

The subject of the next assay is USP24. As to the kind of experiment: DUBprofiler DUB selectivity panel, USP24. The following applies: 50 µM compound. In kind it is biochemical, human. The procedure:
UAF1 was added to the USP1, USP12 and USP46 reactions (with WDR20 additionally added to the USP12 and USP46 reactions), respectively. Ubiquitin was added to the USP5 reaction at KD. Proteasome-VS was added to the USP14 reaction at KD. OTUD5 p177S was used. The reaction for AMSH-LP was supplemented with Zinc.

The target in assay [2] is T2, USP9X catalytic domain. The assay can be described thus: HDX-MS. The following applies: 6 s deuterium exchange; 80 µM WEHI-092 or 30 µM FT709. Format: binding.
Protocol: Deuterium labelling of USP9X catalytic domain was performed as described previously (Asadollahi et al, [2023]) at 20 °C for periods of 0, 6, 60, 6000 s using a PAL Dual Head HDX Automation manager (Trajan/LEAP) controlled by the ChronosHDX software. […] Quenching was performed by adding 50 µL of the protein mix to 50 µL of quench buffer (50 mM potassium phosphate buffer [pH 2.3], 4 M guanidine hydrochloride and 0.1% [v/v] n-dodecylphosphocholine) at 1 °C. […] To further reduce peptide carryover, n-octyl-β-d-glucopyranoside at 1% (w/w) was added to the pepsin column wash solution (1.5 M guanidine hydrochloride, 4% [v/v] acetonitrile [ACN], 0.8% [v/v] FA). […] For MS, an ion mobility equipped SYNAPT G2-Si mass spectrometer (Waters) was used. Instrument settings were: 3.0 KV capillary and 40 V sampling cone with source and desolvation temperatures of 100 °C and 40 °C, respectively. The desolvation and cone gas flow were at 80 L/h and 100 L/h, respectively. High-energy ramp trap collision energy was from 20 to 40 V. All mass spectra were acquired using a 0.4 s scan time with continuous lock mass (Leu-Enk, 556.2771 m/z) for mass accuracy correction. […] The deuterium uptake values were calculated for each peptide using DynamX 3.0 (Waters). […]
The next assay concerns SK-MEL-2 cells. As to the kind of experiment: NCI-60 cancer cell panel, SK-MEL-2. In kind it is cell-based, human. The following applies: 10 µM, 3 days. The procedure:
Inhibitors were tested at 10 µM. Data shown is the mean of two technical replicates and is shown relative to the no-drug control, and relative to the time zero number of cells.

The test system of a further assay is MiaPaca2 cells. As to the kind of experiment: Colony formation assay, MiaPaca2. In kind it is cell-based, human. The conditions noted are these: 10 µM, 7–12 days. The protocol: (§1) Cells were seeded at low density (200–4000 cells per well) after initial optimisation in a six-well tissue culture-treated plate (Falcon). Twenty-four hours post seeding, media was replaced, and the inhibitor was added. Cells were left to grow into colonies between 7 and 12 days, depending on the cell line. For analysis, the media was removed, and the cells were fixed with 10% (w/v) formalin for 10 min. Colonies were stained with crystal violet (Sigma-Aldrich, 0.5% [w/v] in 20% [v/v] MeOH) for 10 min and washed thrice with distilled H2O. Plates were imaged using the ChemiDoc imaging system (Bio-Rad) and analysed using the ImageJ ColonyArea plugin as described previously (Guzmán et al, [2014]).

The next assay relates to MDA-MB-231 cells. As to the kind of experiment: Colony formation assay, MDA-MB-231. Format: cell-based, human. The conditions noted are these: 10 µM, 7–12 days. The protocol: as §1
Another assay concerns MDA-MB-468 cells. The assay can be described thus: Colony formation assay, MDA-MB-468. Format: cell-based, human. The following applies: 10 µM, 7–12 days. The procedure:
as §1

In the next assay the test system is HDFs. As to the kind of experiment: Colony formation assay, HDF. In kind it is cell-based, human. The conditions noted are these: 10 µM, 7–12 days. The protocol: as §1

Structures are written as SMILES. “Also recorded” adds a separate entry of the source.

T1 sequence (Q93008 1551-1970 Y1757F/K1759R/D1761E/L1762V/A1766S): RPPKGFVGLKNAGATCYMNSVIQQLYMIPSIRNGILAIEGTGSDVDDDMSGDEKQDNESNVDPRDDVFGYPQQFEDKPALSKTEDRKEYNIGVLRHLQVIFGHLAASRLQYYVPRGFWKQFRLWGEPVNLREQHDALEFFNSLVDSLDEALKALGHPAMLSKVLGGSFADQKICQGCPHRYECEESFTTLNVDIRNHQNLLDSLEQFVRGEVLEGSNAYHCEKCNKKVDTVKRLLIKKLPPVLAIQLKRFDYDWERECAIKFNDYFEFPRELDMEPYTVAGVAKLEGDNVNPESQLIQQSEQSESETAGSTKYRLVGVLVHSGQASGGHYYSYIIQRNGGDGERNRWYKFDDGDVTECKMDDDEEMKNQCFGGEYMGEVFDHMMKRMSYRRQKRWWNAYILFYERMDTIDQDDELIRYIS

For the compound `Cc1[nH]c2ccc(C(=O)N3CCN(S(=O)(=O)c4ccc5c(c4)OCCO5)CC3)cc2c1C` [WEHI-092], the “activity of USP9X/USP24 chimera in presence of compound” value at USP9X/USP24 chimera was “remained fully active at concentrations up to 10 µM; also recorded: no longer inhibited”. Also, the “modification of USP9X with Ub-PA probe” value at USP9X catalytic domain [1] is given as “prevented the modification of USP9X with ubiquitin propargylamide; also recorded: unable to be modified by the probe”. For the same compound, the “inhibition of USP24, commercial panel” value in the assay with USP24 was “not inhibited”. Moreover, the “changes in hydrogen-deuterium uptake upon compound binding” value at USP9X catalytic domain [2] was “protection of five overlapping peptides that included residues 1757-1762”. Besides, the “cell growth, SK-MEL-2” value with SK-MEL-2 cells is reported as “stalling cell growth completely”. Also, the “clonogenic potential, MiaPaca2” value in the assay on MiaPaca2 cells is “strong decrease in proliferative capacity”. In the assay on MDA-MB-231 cells, the “clonogenic potential, MDA-MB-231” value is “strong decrease in proliferative capacity”. The “clonogenic potential, MDA-MB-468” value with MDA-MB-468 cells is “strong decrease in proliferative capacity”. In the assay on HDFs, the “clonogenic potential, HDF” value is reported as “limited or no effects”.
